# Results from ChEMBL document CHEMBL5370693, “Kinases Controlling Stability of the Oncogenic MYCN Protein” (ACS Med Chem Lett, 2023).
# Key:
# [1] = molecular target: Serine/threonine-protein kinase Chk2 (Homo sapiens) (UniProt O96017); experiment: Inhibition of CHEK2 (unknown origin) assessed as remaining activity at […] incubated for 1 hr by KINOMEscan competitive binding assay relative to control
# [2] = system: Phosphatidylinositol 4,5-bisphosphate 3-kinase catalytic subunit alpha isoform (Homo sapiens), P42336 [C420R]; experiment: Inhibition of PIK3CA C420R mutant (unknown origin) assessed as remaining activity at […] incubated for 1 hr by KINOMEscan competitive binding assay relative to control
# [3] = molecular target: Casein kinase II subunit alpha' (Homo sapiens) (UniProt P19784); experiment: Inhibition of CSNK2A2 (unknown origin) assessed as remaining activity at […] incubated for 1 hr by KINOMEscan competitive binding assay relative to control
# [4] = molecular target: T1, Phosphatidylinositol 3-kinase C2 domain-containing subunit gamma (Homo sapiens) (UniProt O75747); experiment: Inhibition of PIK3C2G (unknown origin) assessed as remaining activity at […] incubated for 1 hr by KINOMEscan competitive binding assay relative to control
# T1 sequence (whole entry): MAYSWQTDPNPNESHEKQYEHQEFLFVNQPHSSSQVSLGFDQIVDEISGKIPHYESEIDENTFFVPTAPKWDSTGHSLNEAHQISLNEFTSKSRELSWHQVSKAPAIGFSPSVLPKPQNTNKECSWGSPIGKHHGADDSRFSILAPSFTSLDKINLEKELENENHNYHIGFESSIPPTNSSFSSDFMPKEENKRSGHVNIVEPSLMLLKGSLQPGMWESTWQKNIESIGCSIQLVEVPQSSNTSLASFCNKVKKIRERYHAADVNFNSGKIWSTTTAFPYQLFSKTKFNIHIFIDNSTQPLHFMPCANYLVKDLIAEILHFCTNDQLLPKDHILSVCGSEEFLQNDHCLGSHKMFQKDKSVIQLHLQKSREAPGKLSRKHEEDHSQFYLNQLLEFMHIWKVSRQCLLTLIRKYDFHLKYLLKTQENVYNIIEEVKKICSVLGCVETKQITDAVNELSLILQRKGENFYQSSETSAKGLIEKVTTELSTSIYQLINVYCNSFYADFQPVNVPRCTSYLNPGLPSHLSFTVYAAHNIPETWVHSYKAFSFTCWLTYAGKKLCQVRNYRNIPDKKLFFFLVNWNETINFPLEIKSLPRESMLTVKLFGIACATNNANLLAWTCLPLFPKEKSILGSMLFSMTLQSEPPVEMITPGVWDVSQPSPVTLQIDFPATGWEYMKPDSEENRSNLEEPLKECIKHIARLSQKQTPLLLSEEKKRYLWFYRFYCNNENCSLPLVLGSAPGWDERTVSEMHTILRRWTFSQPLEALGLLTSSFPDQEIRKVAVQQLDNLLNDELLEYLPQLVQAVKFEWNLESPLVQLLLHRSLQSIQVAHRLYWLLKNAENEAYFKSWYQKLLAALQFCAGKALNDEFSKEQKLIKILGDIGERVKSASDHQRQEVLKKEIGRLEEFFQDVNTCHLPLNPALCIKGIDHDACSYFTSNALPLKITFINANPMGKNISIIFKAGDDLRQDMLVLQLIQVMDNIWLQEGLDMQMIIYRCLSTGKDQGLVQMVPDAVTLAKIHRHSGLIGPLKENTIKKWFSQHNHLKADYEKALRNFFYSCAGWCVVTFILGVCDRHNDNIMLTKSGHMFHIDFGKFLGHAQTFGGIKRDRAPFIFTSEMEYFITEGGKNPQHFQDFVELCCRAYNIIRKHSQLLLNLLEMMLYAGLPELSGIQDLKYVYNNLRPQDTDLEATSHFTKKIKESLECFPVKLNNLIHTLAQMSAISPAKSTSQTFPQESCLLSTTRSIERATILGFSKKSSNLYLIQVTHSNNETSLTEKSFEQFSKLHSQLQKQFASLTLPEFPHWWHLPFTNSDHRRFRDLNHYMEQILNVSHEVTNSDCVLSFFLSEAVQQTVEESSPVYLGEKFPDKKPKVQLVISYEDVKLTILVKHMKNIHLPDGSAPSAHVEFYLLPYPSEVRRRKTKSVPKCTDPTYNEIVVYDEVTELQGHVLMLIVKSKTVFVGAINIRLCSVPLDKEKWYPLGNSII
# [5] = molecular target: Casein kinase II subunit alpha' (Homo sapiens) (UniProt P19784); experiment: Inhibition of CSNK2A2 (unknown origin) assessed as remaining activity at 10 uM incubated for 1 hr by KINOMEscan competitive binding assay relative to control
# [6] = molecular target: T1, Phosphatidylinositol 3-kinase C2 domain-containing subunit gamma (Homo sapiens); experiment: Inhibition of PIK3C2G (unknown origin) assessed as remaining activity at 10 uM incubated for 1 hr by KINOMEscan competitive binding assay relative to control
# [7] = molecular target: Phosphatidylinositol 4-phosphate 3-kinase C2 domain-containing subunit beta (Homo sapiens) (UniProt O00750); experiment: Inhibition of PIK3C2B (unknown origin) assessed as remaining activity at 10 uM incubated for 1 hr by KINOMEscan competitive binding assay relative to control
# [8] = molecular target: T1, Phosphatidylinositol 3-kinase C2 domain-containing subunit gamma (Homo sapiens); experiment: Inhibition of PIK3C2G (unknown origin) assessed as remaining activity at 5 uM incubated for 1 hr by KINOMEscan competitive binding assay relative to control
# [9] = molecular target: Casein kinase II subunit alpha (Homo sapiens) (UniProt P68400); experiment: Inhibition of CSNK2A1 (unknown origin) assessed as remaining activity at 5 uM incubated for 1 hr by KINOMEscan competitive binding assay relative to control
# [10] = system: Phosphatidylinositol 4,5-bisphosphate 3-kinase catalytic subunit alpha isoform (Homo sapiens), P42336 [E545K]; experiment: Inhibition of PIK3CA E545K mutant (unknown origin) assessed as remaining activity at 5 uM incubated for 1 hr by KINOMEscan competitive binding assay relative to control
# [11] = system: Phosphatidylinositol 4,5-bisphosphate 3-kinase catalytic subunit alpha isoform (Homo sapiens), P42336 [Q546K]; experiment: Inhibition of PIK3CA Q546K mutant (unknown origin) assessed as remaining activity at 5 uM incubated for 1 hr by KINOMEscan competitive binding assay relative to control
# [12] = system: Phosphatidylinositol 4,5-bisphosphate 3-kinase catalytic subunit alpha isoform (Homo sapiens), P42336 [H1047L]; experiment: Inhibition of PIK3CA H1047L mutant (unknown origin) assessed as remaining activity at 5 uM incubated for 1 hr by KINOMEscan competitive binding assay relative to control
smiles,measurement,setting,value
CC(C)=CCc1c2c(c3occ(-c4ccc(O)c(O)c4)c(=O)c3c1O)C=CC(C)(C)O2,Activity,[1],70%
same,Activity,[2],80%
same,Activity,[3],100%
same,Activity,[4],72%
NC(=O)Nc1cc(-c2cccc(F)c2)sc1C(=O)N[C@H]1CCCNC1,Activity,[5],22%
same,Activity,[6],98%
same,Activity,[7],37%
O=c1[nH]c2ccc(Cl)cc2c(N[C@@H]2CN3CCC2CC3)c1-c1nc2ccccc2[nH]1,Activity,[8],74%
same,Activity,[9],1.6%
same,Activity,[10],85%
same,Activity,[11],62%
same,Activity,[12],65%
